The results in this text go back to patent EP0211584A1, “Antihypertensive agents” (AMERICAN HOME PRODUCTS CORPORATION, priority 1985, dated 1987).

Structures are written as SMILES.

The test system of test [1] is rabbit aortic smooth muscle. Nature of the test: Ca+2 antagonism: relaxation of KCl-depolarized rabbit aortic smooth muscle strips. To be noted: Oryctolagus cuniculus, 20 min, compound 1 x 10^-5M; 100mM KCl contraction; 20 minutes after addition; mean of two experiments; read-out: P.R. (percent relaxation of aortic tissue). As for the experimental part:
The composition of PSS was as follows (mM): NaCl 112,KCI 5, NaHCO3 25 KH2PO4 1, MgSO4 1.2, CaCl2 2.5, dextrose 10. The lower end of each tissue strip was attached to a fixed post and the upper end to a Statham UC-4 transducer. Changes in force development were recorded on a Beckman Dynograph Polygraphic Recorder.
Following equilibration, the muscles were contracted in a depolarizing solution of PSS in which 100mM KCI was substituted for an equimolar concentration of NaCI. Following attainment of steady- state isometric force (20 min.), the test compound was added to afford a final concentration of 1 x 10^-5M. The inhibitory effect, expressed as percent relaxation, was determined from the mean of two experiments twenty minutes after the addition of the compound being tested.
(§1) The following examples illustrate the preparation of a representative number of compounds of this invention. After each example, the Ca+2 antagonist activity of the compound is presented in terms of percent relaxation of aortic tissue (P.R.) at 10-^5M concentration. […] Inhibition of super- precipitation (Antag. of Actin-Myosin interaction) is expressed as percent inhibition (mean ± standard error of the mean for at least 3 separate experiments) at a compound concentration. In the same manner, inhibition of myosin light chain phosphorylation (Antag. of MLCP) is expressed as a percent inhibition at a compound concentration. Similarly, the antihypertensive activity is reported in terms of millimetres mercury (mmHg) systolic blood pressure (B.P.) reduction at the stated time post 50 mg/kg oral dosing or other dosing as indicated.

Test [2] deals with arterial actin-myosin interactions. Nature of the test: Inhibition of superprecipitation (antagonism of actin-myosin interaction), Silver et al. The conditions noted are these: six minute time-point. Type of test: biochemical. As for the experimental part: . The data reported herein was obtained at a six minute time-point rather than the 1.5, 5 and 12 minute time points indicated in the superprecipita- tion assay of the Silver et al paper.
as §1

The subject of test [3] is isolated paced intact rabbit atria. Kind of test: Cardiac depressant (negative inotropic) effect in isolated paced rabbit atria. To be noted: Oryctolagus cuniculus; rabbit atria paced at 3Hz, 30°C, cumulative dosing; read-out: IC25 (concentration which produces 25% inhibition of isometric force). As for the experimental part:
The potential for detrimental cardiac depressant (negative inotropic) effects of the compounds of this invention was assessed in isolated paced intact rabbit atria. […] Muscles (N=5-9/compound) were stimulated at a frequency of 3Hz with a WPI stimulator for a 60 minute equilibration period. Changes in isometric force were recorded as described for the aortic smooth muscle experiments, supra. […]

In test [4] the target is Ca^+2-calmodulin dependent myosin light chain phosphorylation (Bos taurus, UniProt Q28824). Nature of the test: Inhibition of myosin light chain phosphorylation (MLCP), Silver et al. The conditions noted are these: read-out: Antag. of MLCP (percent inhibition of myosin light chain phosphorylation). Type of test: biochemical. As for the experimental part: The data reported herein was obtained at a six minute time-point rather than the 1.5, 5 and 12 minute time points indicated in the superprecipita- tion assay of the Silver et al paper.
as §1

Test [5] has as its system spontaneously hypertensive rats. Kind of test: Hypotensive effect: systolic blood pressure of spontaneously hypertensive rats. It is filed as in vivo. To be noted: mmHg per method. The protocol: The hypotensive in vivo effect of the compounds of this invention was determined by measuring changes in the systolic blood pressure of spontaneously hypertensive rats with a Decker Caudal Plethysmograph. The compound being tested was administered to a group of 4 rats and their systolic pressure was determined prior to and at 1.5 and 4 hours after compound administration. Initial testing was done by oral administration of the compound. Results (mmHg) are expressed as decreases in systolic blood pressure.
as §1

Where [6] appears, read: dose 10mg/kg oral, at 1.5 hours.

With `CC1=C(C(=O)OCCc2ccccc2)C(c2c(F)c(F)c(F)c(F)c2F)C2=C(CNCC2=O)N1` (centres unmarked) [Example 18, 1,4,5,6,7,8-Hexahydro-2-methyl-5-oxo-4-(pentafluorophenyl)-1,7-naphthyridine-3-carboxylic acid 2-phenylethyl ester], in test [1], the inhibition at 10 µM was 48%. Further, the “Antag. of Actin-Myosin (percent inhibition of superprecipitation)” value was 42% in test [2] (25µM), 65% in test [2] (50µM) and 78±2% in test [2] (100µM). Also, the IC25 in test [3] was found to be 1000 nM. Besides, the inhibition at 25 µM in test [4] was 35%. In addition, in test [4], the inhibition at 50 µM is 64%. In addition, in test [4], the inhibition at 100 µM worked out at 77 ± 3%. The “B.P. (systolic blood pressure reduction)” value in test [5] (setting [6]) is given as -27 mm; in test [5] (dose 10mg/kg oral, at 4 hours) it was -24 mm.

Take `CC1=C(C(=O)OCC2COc3ccccc3O2)C(c2c(F)c(F)c(F)c(F)c2F)C2=C(CNCC2=O)N1` (centres unmarked) [Example 14, 1,4,5,6,7,8-Hexahydro-2-methyl-5-oxo-4-(pentafluorophenyl)-1,7-naphthyridine-3-carboxylic acid 2.3-dihvdro-1.4-benzodioxin-2-vimethvl ester]: the inhibition at 10 µM in test [1] came out at 62%. Moreover, the “Antag. of Actin-Myosin (percent inhibition of superprecipitation)” value in test [2] (25µM) came to 65%; in test [2] (100µM), 80%. For the same molecule, the IC25 in test [3] worked out at 3200 nM. In addition, in test [4], the inhibition at 25 µM stood at 59%. In addition, the inhibition at 100 µM in test [4] amounted to 76%. In addition, the “B.P. (systolic blood pressure reduction)” value in test [5] (dose 50mg/kg oral, at 1.5 hours) is -46 mm; in test [5] (dose 50mg/kg oral, at 4 hours) it was -42 mm.

As to `CC1=C(C(=O)OCCOc2ccccc2)C(c2cccc(Cl)c2C)C2=C(CNCC2=O)N1` (centres unmarked) [Example 17, 4-(3-Chloro-2-methylphenyl)-1,4,5,6,7,8-hexahydro-2-methyl-5-oxo-1,7-naphthyridine-3-carboxylic acid 2-phenoxyethyl ester], the inhibition at 10 µM in test [1] was determined as 74%; in test [4] (10µM) it was 11%. Further, the “Antag. of Actin-Myosin (percent inhibition of superprecipitation)” value is 22% in test [2] (10µM), 44±2% in test [2] (25µM), 64±3% in test [2] (50µM) and 71±2% in test [2] (100µM). For the same molecule, the IC25 in test [3] was 1000 nM. Also, in test [4], the inhibition at 25 µM worked out at 39 ± 2%. Moreover, the inhibition at 50 µM in test [4] was 59 ± 3%. The inhibition at 100 µM in test [4] is 67 ± 2%. The “B.P. (systolic blood pressure reduction)” value in test [5] (dose 25mg/kg oral, at 1.5 hours) is listed as -10 mm; in test [5] (dose 25mg/kg oral, at 4 hours), -45 mm.

Turning to `CC1=C(C(=O)OCCCCOc2ccccc2)C(c2c(F)c(F)c(F)c(F)c2F)C2=C(CNCC2=O)N1` (centres unmarked) [Example 21, 1,4,5,6,7,8-Hexahydro-2-methyl-5-oxo-4-(pentafluorophenyl)-1,7-naphthyridine-3-carboxylic acid 4-phenoxvbutvl ester], in test [1], the inhibition at 10 µM was 61%. In test [2] (100µM), the “Antag. of Actin-Myosin (percent inhibition of superprecipitation)” value is recorded as 80%. Besides, the IC25 in test [3] came to 1000 nM. Besides, the inhibition at 100 µM in test [4] amounted to 77%. The “B.P. (systolic blood pressure reduction)” value in test [5] (dose 25mg/kg oral, at 4 hours) was -49 mm.

For `COC(COC(=O)C1=C(C)NC2=C(C(=O)CNC2)C1c1cccc(Cl)c1C)c1ccccc1` (centres unmarked) [Example 10, 4-(3-chloro-2-methylphenyl)-1,4,5,6,7,8-hexahydro-2-methyl-5-oxo-1,7-naphthyridine-3-carboxylic acid 2-methoxy-2-phenylethyl ester], the inhibition at 10 µM in test [1] came to 60%. Moreover, the “Antag. of Actin-Myosin (percent inhibition of superprecipitation)” value in test [2] (25µM) amounted to 45±3%; in test [2] (50µM), 68±2%; in test [2] (100µM) it was 76±2%. Further, the IC25 in test [3] is over 10000 nM. Further, the inhibition at 25 µM in test [4] was 35 ± 5%. Also, the inhibition at 50 µM in test [4] was 62 ± 1%. Besides, the inhibition at 100 µM in test [4] amounted to 75 ± 3%. Besides, the “B.P. (systolic blood pressure reduction)” value in test [5] (setting [6]) is -28 mm; in test [5] (dose 10mg/kg oral, at 4 hours), -19 mm.

`CC1=C(C(=O)OCCOc2ccccc2)C(c2c(F)c(F)c(F)c(F)c2F)C2=C(CNCC2=O)N1` (racemic) [Example 2, 1,4,5,6,7,8-Hexahydro-2-methyl-5-oxo-4-(pentafluorophenyl)-1,7-naphthyridine-3-carboxylic acid 2-phenoxvethvl ester]: the inhibition at 10 µM in test [1] amounted to 71%. Further, in test [2] (25µM), the “Antag. of Actin-Myosin (percent inhibition of superprecipitation)” value is reported as 28± 2%. Moreover, the “Antag. of Actin-Myosin (percent inhibition of superprecipitation)” value in test [2] (50µM) is on record as 58± 4%. In test [3], the IC25 was 1000 nM. In test [4], the inhibition at 25 µM came to 24 ± 3%, the inhibition at 50 µM stood at 54 ± 4% and the inhibition at 100 µM came out at 69 ± 3%. Besides, the “B.P. (systolic blood pressure reduction)” value in test [5] (setting [6]) is -39 mm.
